Consider 45 compounds from patent US11643417B2, “Tetrahydrobenzofurodiazepinone compound and pharmaceutical use thereof” (priority 2020, dated 2023).

Like-named read-outs stand apart in the source and are kept apart here.

The target of the assay is human Pim-1 (Homo sapiens (Human), UniProt P11309). Put plainly: biochemical. Type of assay: biochemical. The procedure:
The human Pim-1 inhibitory activity of the test compounds was evaluated as follows.
(1) Purification of Human Pim-1
DNA fragment in which a His-Tag sequence and a translation termination sequence are added to the 3′-end of human Pim-1 translation sequence was amplified by PCR (Polymerase Chain Reaction), using human Pim-1 gene-inserted plasmid DNA (Kazusa DNA Laboratory, model number FXC11400) as a template. The amplified DNA fragment was fused with pGEx-6P-1 (GE Healthcare Japan, model number 27-4597-1) digested with BamHI and EcoRI using In-Fusion HD Cloning Kit (Takara Bio, model number 639649). […] The base sequence of Pim-1 cloned into vector was determined by Dye Terminator method using BigDye Terminator v3.1 Cycle Sequencing Kit (Applied Biosystems, model number 4337456). […] Escherichia coli BL21 (DE3) (Merck KGaA, model number 69449-4) transformed with human Pim-1-expressed plasmid DNA was cultured in 2×YT medium (Becton Dickinson, model number 2404020) at 30° C., until the optical concentration at 620 nm (OD620) reached 0.6, and then cultured overnight at 20° C. in the presence of 0.5 mmol/L isopropyl b-D-1-thiogalactopyranoside. After the completion of so the culture, the cells were collected and suspended in Homogenate Buffer (50 mmol/L Tris-HCl (pH 7.5), 500 mmol/L NaCl, 1% Tween20, complete, EDTA-free (Roche, model number 1873580)), and the suspended cells were lysed by passing through a microfluidizer M-110H (Mizuho Kogyo Co., Ltd.). The lysate was centrifuged at 10,100×g for 10 minutes, 4° C., and the supernatant was filtered through MILLEX-HV Filter (0.45 μm) (Millipore, SLHV033RS) to remove the cell residues. The filtrate was loaded onto complete His-Tag Purification Resin (Roche Diagnostics, model number 05 893 682 0.01). The column was washed with Equilibration Buffer-1 (50 mmol/L Tris-HCl (pH 7.5), 500 mmol/L NaCl, 1% Tween 20) containing 5 mmol/L Imidazole, followed by Equilibration Buffer-1 containing 50 mmol/L Imidazole, the human Pim-1 to which GST-Tag derived from pGEx-6P-1 was eluted with Equilibration Buffer-1 containing 150 mmol/L imidazole. […] The protease reaction was carried out by stirring overnight at 4° C., and the human Pim-1 in which the GST-Tag sequence was cleaved was eluted. The eluate was loaded onto a gel filtration column (Superdex-200 […] (GE Healthcare, model number 17-5175-01)) equilibrated with Equilibration Buffer-3 (50 mmol/L Tris-HCl (pH 7.5), 500 mmol/L NaCl, 0.05% Tween20, 0.5 mmol/L EDTA, 2 mmol/L DTT, 10% Glycerol), and eluted. The eluate was used as a human Pim-1 purified fraction.
The protein concentration of the human Pim-1 purified fraction was measured with Pierce 660 nm Protein Assay Reagent (Thermo Fisher Scientific, model number 22660). The purified fraction was rapidly frozen in liquid nitrogen, and then stored at −80° C. The His-Tag-added human Pim-1 was detected by Western blotting using a mouse anti-His monoclonal antibody (WAKO, model number 011-23091).
(2) Evaluation of Human Pim-1 Inhibitory Activity
The calculation of the Pim-1 inhibitory activity of the compound was performed using the following solution according to the protocol attached to ADP-Glo Kinase Assay (cat. V9102, Promega). The purified enzyme of human Pim-1 described above was used.
(i) Preparation of Solution
The kinase buffer solution (50 mmol/L HEPES (pH 7.5), 5 mmol/L MgCl2, 1 mmol/L DTT, 0.05% BSA) was prepared by dissolving HEPES (Jena Bioscience), MgCl2 (Sigma-Aldrich), DTT (Sigma-Aldrich) and BSA (Sigma-Aldrich) in purified water.
The ATP solution (288 μmol/L) was prepared by dissolving 100 mmol/L ATP (Promega) in the kinase buffer solution.

[1] abbreviates: Ki converted from IC50; purified human Pim-1, Pim2tide substrate, ADP-Glo; read-out: hPim1 Ki.
[2] abbreviates: hPim1 Ki (nM), Ki converted from IC50; purified human Pim-1, Pim2tide substrate, ADP-Glo.

human Pim-1, sequence (P11309 whole entry): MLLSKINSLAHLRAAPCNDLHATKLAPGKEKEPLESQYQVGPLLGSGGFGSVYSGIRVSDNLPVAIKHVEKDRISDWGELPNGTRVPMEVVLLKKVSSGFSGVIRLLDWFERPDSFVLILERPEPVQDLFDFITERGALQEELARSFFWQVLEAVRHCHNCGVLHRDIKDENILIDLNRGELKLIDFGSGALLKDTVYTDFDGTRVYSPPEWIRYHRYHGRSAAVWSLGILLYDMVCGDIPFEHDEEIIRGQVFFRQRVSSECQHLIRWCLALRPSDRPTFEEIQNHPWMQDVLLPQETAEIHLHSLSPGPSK

As to `N#CC1(CO)CCC(CCN2CCNC(=O)c3oc4ccc(C(F)(F)F)cc4c32)CC1` (stereo not drawn) [Example 163], the Ki (as a rule, the equilibrium dissociation constant of an inhibitor or competing ligand from its target) under setting [1] came to 0.0445 nM.

Consider `C[C@]1(O)CC[C@@H](CCN2CCNC(=O)c3oc4ccc(C(F)(F)F)cc4c32)CC1` [Example 79], for which the Ki under setting [1] turned out to be 0.705 nM.

As to `N#CC1(CCO)CCOC(CCN2CCNC(=O)c3oc4ccc(C(F)(F)F)cc4c32)C1` (racemic) [Example 7], the Ki under setting [1] is 0.468 nM.

Take `O=C1NCCN(CC(F)(F)[C@H]2CC[C@H](O)CC2)c2c1oc1ccc(C(F)(F)F)cc21` [Example 165]: the Ki under setting [1] was found to be 0.104 nM.

Regarding `O=C1NCCN(CCC2CCCCO2)c2c1oc1ccc(C(F)(F)F)cc21` (stereo not drawn) [Example 40], the Ki under setting [1] is 0.969 nM.

Take `N#CC1CCOC(CCN2CCNC(=O)c3oc4ccc(C(F)(F)F)cc4c32)C1` (stereo not drawn) [Example 2]: under setting [1], the Ki is 1.12 nM.

Regarding `O=C1NC2(CC2)CN(CC(F)(F)[C@H]2CO[C@H](CO)CO2)c2c1oc1ccc(C(F)(F)F)cc21` [Example 164], the Ki under setting [1] stood at 0.0193 nM.

Turning to `CC1(O)CCOC(C(F)(F)CN2CCNC(=O)c3oc4ccc(C(F)(F)F)cc4c32)C1` (stereo not drawn) [Example 59, 1-(2,2-difluoro-2-(4-hydroxy-4-methyltetrahydro-2H-pyran-2-yl)ethyl)-9-(trifluoromethyl)-1,2,3,4-tetrahydro-5H-benzofuro[3,2-e][1,4]diazepin-5-one], the Ki under setting [1] amounted to 0.107 nM.

Regarding `CS(=O)(=O)CC1(O)CCC(CCN2CCNC(=O)c3oc4ccc(C(F)(F)F)cc4c32)CC1` (stereo not drawn) [Example 122], the Ki under setting [1] was 0.532 nM.

With `CS(=O)(=O)CC1COCC(CCN2CCNC(=O)c3oc4ccc(C(F)(F)F)cc4c32)O1` (racemic) [Example 137], the Ki under setting [1] was found to be 5.36 nM.

As for `O=C1NC2(CC2)CN(CC[C@H]2CO[C@@H](CO)CO2)c2c1oc1ccc(C(F)(F)F)cc21` [Example 154], the Ki under setting [1] turned out to be 0.302 nM.

In the case of `C[C@@H]1CO[C@H](CCN2CCNC(=O)c3oc4ccc(C(F)(F)F)cc4c32)CO1` [Example 64], the Ki under setting [1] was 0.263 nM.

`O=C1NC2(CC2)CN(CCC2CCC(O)(CO)CC2)c2c1oc1ccc(C(F)(F)F)cc21` (stereo not drawn) [Example 116] had a Ki under setting [2] of 0.0092 nM.

Consider `O=C1NCCN(CC(F)(F)[C@@H]2CO[C@@H](CO)CO2)c2c1oc1ccc(C(F)(F)F)cc21` [Example 77, 1-(2,2-difluoro-2-((2S,5S)-5-(hydroxymethyl)-1,4-dioxan-2-yl)ethyl)-9-(trifluoromethyl)-1,2,3,4-tetrahydro-5H-benzofuro[3,2-e][1,4]diazepin-5-one], for which, under setting [1], the Ki was 0.0438 nM.

As to `O=C1NCCN(CCC2CCCCC2)c2c1oc1ccc(C(F)(F)F)cc21` [Example 25], under setting [1], the Ki was found to be 11 nM.

On to `CN1CCN(CC[C@H]2CC[C@](O)(CO)CC2)c2c(oc3ccc(C(F)(F)F)cc23)C1=O` [Example 2-03], for which the Ki under setting [1] was determined as 0.414 nM.

Take `O=C1NCCN(CC(F)(F)C2CCC(O)(CO)CC2)c2c1oc1ccc(C(F)(F)F)cc21` (stereo not drawn) [Example 120]: the Ki under setting [1] came to 0.006 nM.

As for `O=C1NCCN(CCC2CCC(O)(CO)CC2)c2c1oc1ccc(C(F)(F)F)cc21` (stereo not drawn) [Example 89], the inhibitory constant (Ki) (read-out: hPim1 Ki; Ki converted from IC50; purified human Pim-1, Pim2tide substrate, ADP-Glo) turned out to be 0.0329 nM.

In the case of `O=C1NCCN(CC(F)(F)C2CC(O)(C(F)F)CCO2)c2c1oc1ccc(C(F)(F)F)cc21` (single isomer, unassigned) [Example 52], under setting [1], the Ki is 0.104 nM.

For `O=C1NCCN(CC[C@H]2CC[C@](O)(CCO)CC2)c2c1oc1ccc(C(F)(F)F)cc21` [Example 108], the Ki under setting [1] stood at 0.298 nM.

`O=C1CCC(F)(F)C(C(F)(F)CN2CCNC(=O)c3oc4ccc(C(F)(F)F)cc4c32)C1` (racemic) [Example 61]: the Ki under setting [1] was determined as 0.0391 nM.

On to `O=C1NCCN(CCC2CCC(O)(C(F)(F)CO)CC2)c2c1oc1ccc(C(F)(F)F)cc21` (single isomer, unassigned) [Example 118], for which the Ki under setting [1] amounted to 0.127 nM.

Consider `O=C1NCCN(CC(F)(F)C2CCOCC2)c2c1oc1ccc(C(F)(F)F)cc21` [Example 65], for which the inhibitory constant (Ki) under setting [1] is 0.12 nM.

`CN1CCN(CC(F)(F)C2CC(O)CCO2)c2c(oc3ccc(C(F)(F)F)cc23)C1=O` (stereo not drawn) [Example 20]: under setting [1], the Ki was 0.38 nM.

In the case of `CC1(O)CCOC(C(F)(F)CN2CCNC(=O)c3oc4ccc(C(F)(F)F)cc4c32)C1` (stereo not drawn) [Example 58, 1-(2,2-difluoro-2-(4-hydroxy-4-methyltetrahydro-2H-pyran-2-yl)ethyl)-9-(trifluoromethyl)-1,2,3,4-tetrahydro-5H-benzofuro[3,2-e][1,4]diazepin-5-one], the Ki under setting [1] is 0.0167 nM.

Take `O=C1NCCN(CCC2CCC(O)(C3(O)CC3)CC2)c2c1oc1ccc(C(F)(F)F)cc21` (stereo not drawn) [Example 111]: under setting [1], the Ki came to 0.011 nM.

Consider `CS(=O)(=O)C[C@@H]1CO[C@@H](CCN2CC3(CC3)NC(=O)c3oc4ccc(C(F)(F)F)cc4c32)CO1` [Example 159], for which the Ki under setting [1] amounted to 0.164 nM.

On to `CNC(=O)C1CCC(CCN2CCNC(=O)c3oc4ccc(C(F)(F)F)cc4c32)CC1` (stereo not drawn) [Example 100], for which the Ki under setting [1] was 1 nM.

With `O=C1NC2(CC2)CN(CC(F)(F)[C@H]2CC[C@H](O)CC2)c2c1oc1ccc(C(F)(F)F)cc21` [Example 149], the Ki under setting [1] is 0.0337 nM.

As to `CC1(CO)CCC(CCN2CCNC(=O)c3oc4ccc(C(F)(F)F)cc4c32)CC1` (stereo not drawn) [Example 94], under setting [1], the Ki was 0.129 nM.

`O=C1NCCN(CCC2CCC(O)CC2)c2c1oc1ccc(C(F)(F)F)cc21` (stereo not drawn) [Example 60]: under setting [2], the affinity, expressed as Ki, was 0.273 nM.

Consider `O=C1NCCN(CC(F)(F)[C@@H]2CO[C@H](CO)CO2)c2c1oc1ccc(C(F)(F)F)cc21` [Example 78], for which, under setting [1], the Ki is 0.227 nM.

Take `O=C1NCCN(CC(F)(F)C2CC(O)(C(F)(F)F)CCO2)c2c1oc1ccc(C(F)(F)F)cc21` (stereo not drawn) [Example 19]: the Ki under setting [1] is 0.101 nM.

For `O=C1NCCN(CC[C@H]2CO[C@H](CO)CO2)c2c1oc1ccc(C(F)(F)F)cc21` [Example 41], the Ki under setting [1] came out at 0.933 nM.

For `COC1(CO)CCOC(C(F)(F)CN2CCNC(=O)c3oc4ccc(C(F)(F)F)cc4c32)C1` (stereo not drawn) [Example 34], the Ki under setting [1] came to 0.0206 nM.

For `C[C@H]1CN(CC[C@H]2CC[C@](O)(CO)CC2)c2c(oc3ccc(C(F)(F)F)cc23)C(=O)N1` [Example 2-06], the Ki under setting [1] came to 0.074 nM.

For `O=C1NCCN(CC[C@@H]2CO[C@H](CO)CO2)c2c1oc1ccc(C(F)(F)F)cc21` [Example 72], the Ki under setting [1] worked out at 2.29 nM.

Turning to `O=C1NCCN(CC[C@H]2CC[C@@H](O)CC2)c2c1oc1ccc(C(F)(F)F)cc21` [Example 83], the Ki under setting [1] was found to be 0.762 nM.

Regarding `O=C(OC[C@@H]1CO[C@H](CCN2CCNC(=O)c3oc4ccc(C(F)(F)F)cc4c32)CO1)c1ccccc1` [Example 69], the Ki under setting [1] came out at 18.5 nM.

On to `O=C1NCCN(CC2(F)COC2)c2c1oc1ccc(C(F)(F)F)cc21` [Example 16], for which, under setting [1], the Ki was determined as 10.9 nM.

As to `O=C1NCCN(CCC2CCC(CO)(CO)CC2)c2c1oc1ccc(C(F)(F)F)cc21` [Example 146], the inhibition constant (Ki) under setting [1] was 0.0231 nM.

For the compound `CS(=O)(=O)C[C@H]1CO[C@@H](CCN2CCNC(=O)c3oc4ccc(C(F)(F)F)cc4c32)CO1` (racemic) [Example 141], the Ki under setting [1] came to 10.3 nM.

Turning to `NC(=O)C1CCC(CCN2CCNC(=O)c3oc4ccc(C(F)(F)F)cc4c32)CC1` (stereo not drawn) [Example 104], the inhibition constant Ki under setting [1] came to 0.819 nM.

With `CC1(C)OCC(C(F)(F)CN2CCNC(=O)c3oc4ccc(C(F)(F)F)cc4c32)CO1` [Example 71], under setting [1], the Ki turned out to be 1.3 nM.

In the case of `O=C1NC2(CC2)CN(CC(F)(F)C2CCS(=O)(=O)CC2)c2c1oc1ccc(C(F)(F)F)cc21` [Example 160], under setting [1], the Ki amounted to 0.0982 nM.
